The values that follow come from US8771983B2, “Method and kit for expressing protein under regulation of the expression from repeated sequence formed by gene amplification, and transformant” (National University of Corporation Hiroshima University, priority 2004, dated 2014).

Structures are written as SMILES.

Assay [1] has as its system expression of d2EGFP in human colon cancer cells COLO 320DM cells. Description: Level of expression of d2EGFP after treatment of cells with 5-aza-2′-deoxycytidine and/or Trichostatin A (Example 6). As to conditions: for accumulated fluorescence intensity / average fluorescence intensity: 3 days. The assay is classed as cell-based. As for the experimental part: (§1) Fluorescence intensity of these cells were measured by using a cell sorter. The measurement was carried out by sorting 20,000 cells by setting living cells at a gate. The cell sorter used was made by Becton Dickinson, and operated under conditions as described in the manual attached thereto.
(§2) In this method for detecting the fluorescence intensity, detection limit was 1, and all fluorescence intensities of 1 or less would be detected as 1. In view of this, a product of a ratio (cell %) of cells of fluorescence intensities of 2 or more in all living cells (10,000 cells) and an average of the fluorescence intensities of the cells having fluorescence intensities of 2 or more was calculated out for each experimental plot. This product is referred to as “accumulated fluorescence intensity” hereinafter and in later Examples and shown in boxed letter in the figures.
A mixture of a plasmid (pSFVdhfr/d2EGFP) and the plasmid DNA having the Aves-derived HS4 insulator sequence was transfected to human colon cancer cells COLO 320DM cells by lipofection. The plasmid (pSFVdhfr/d2EGFP) was a plasmid having (a) IR and MAR derived from human DHFR gene locus, (b) Blasticidin tolerance gene, and (c) d2EGFP gene that was under control of TRE-promoter (Tetracycline inducing promoter). The plasmid DNA having the Aves-derived HS4 insulator sequence was identical with the one described in Example 2. From 2 days later since the gene transfection, the cells were selected with 5 μg/ml of Blasticidin (Funakoshi Corp.). After 3 to 4 weeks, many colonies of transformed cells were obtained.
Into a culture solution of the transformed cells, of 1 μM or 3 μM of 5-aza-2′ deoxycytidine (hereinafter referred to as “5-aza” where appropriate; Sigma) was added. Thereby, the cells were treated with 5-aza for 3 days. For comparison purposes, 20 nM of Trichostatin A (hereinafter referred to as “TSA” where appropriate; histone deacetylation inhibitor, Sigma), which is known as a material for increasing gene expression from the repeated sequence, was added to some culture solutions of the transformed cells and analyzed.

Assay [2] has as its system expression of d2EGFP in Tet-ON cells (COLO 320DM) transfected with pSFVdhfr/d2EGFP. In words: Level of expression of d2EGFP by cell sorter in HSR and DM clones of Tet-ON cells with 5-aza (Example 7). To be noted: 1 week, Doxycycline 1 μg/ml. Type of assay: cell-based, human. As for the experimental part:
as §1, §2
By lipofection, the pTet-ON plasmid (Clontech Laboratories Inc.) having Tet-ON gene encoding a transcription activating factor (Tet-ON protein) for promoting TRE-promoter was transfected into human colon cancer COLO 320DM. Transformed cells (hereinafter referred to as “Tet-ON cells”) which stably expressed Tet-ON protein, were selected with Hygromycin.
Next, the pSFVdhfr/d2EGFP plasmid was transfected into the Tet-ON cells by lipofection. The cells thus obtained were selected with 5 μg/ml of Blasticidin for approximately 3 weeks, thereby obtaining a polyclonal population of the stable transformed cells.
The expression of d2EGFP was induced in the polyclonal population by activating TRE-promoter by adding 5 μg/ml of Doxycycline (Clontech Laboratories Inc.) in the medium. FIG. 9 illustrates a result of analysis of the level of the expression of d2EGFP in this case by using a cell sorter. In FIG. 9, the value in parenthesis is an average of fluorescence intensities (i.e., average fluorescence intensity), and boxed value is an accumulated fluorescence intensity. Based on the result of FIG. 9, it was confirmed that the polyclonal population was a population for expressing d2EGFP (average fluorescence intensity: 6.25, accumulated fluorescence intensity: 536).
From the polyclonal population, given 30 clones were obtained by a limiting dilution method that was carried out by inoculating a clone to 6 well plates with such a low cell concentration of 30 cells/ml, and incubating the plates for 10 days to 2 weeks thereby obtaining colonies thereon.
From among the clones, 4 clones having high levels of expression of d2EGFP (Clone 4, Clone 5, Clone 6, and Clone 9) were selected by fluorescence microscopic observation. Mitotic chromosome samples of the 4 clones were prepared. By FISH method, detection for a base sequence derived from the transfected pSFVdhfr/d2EGFP plasmid was carried out. The preparation of mitotic chromosome samples and the FISH method were carried out as described in Shimizu, N., Kanda, T., and Wahl, G. M. Selective capture of acentric fragments by micronuclei provides a rapid method of purifying extrachromosomally amplified DNA. Nature Genet., 12: 65-71, 1996.
For 4 clones, induction with Doxycycline (Clontech Laboratories Inc.; 1 μg/ml) was carried out and 5-aza (0 μM, 1 μM or 3 μM) was added in the medium. After 1 week culturing, the level of expression of d2EGFP in each clone was analyzed by using a cell sorter.

Where [3] appears, read: clone 4 (HSR), 1 μM of 5-aza in the medium.
Setting [4] is: clone 4 (HSR), 3 μM of 5-aza in the medium.
The mark [5] stands for this setting: clone 5 (HSR), 1 μM of 5-aza in the medium.
The mark [6] stands for this setting: clone 5 (HSR), 3 μM of 5-aza in the medium.
Setting [7] is: clone 6 (HSR), 1 μM of 5-aza in the medium.
Setting [8] is: clone 6 (HSR), 3 μM of 5-aza in the medium.
The mark [9] stands for this setting: clone 9 (DM), 1 μM of 5-aza in the medium.
The mark [10] stands for this setting: clone 9 (DM), 3 μM of 5-aza in the medium.

On to `Nc1ncn([C@H]2C[C@H](O)[C@@H](CO)O2)c(=O)n1` [5-aza, 5-aza-2′-deoxycytidine], for which the results for the accumulated fluorescence intensity in assay [1] (1 μM of 5-aza) and in assay [1] (3 μM of 5-aza) were 895 and 1040, respectively. In addition, the average fluorescence intensity is 9.48 in assay [1] (1 μM of 5-aza); 10.93 in assay [1] (3 μM of 5-aza); 5.46 in assay [2] (setting [3]); 23.76 in assay [2] (setting [4]); 2.23 in assay [2] (setting [5]); 10.44 in assay [2] (setting [6]). Also, the average fluorescence intensity came out at 2.09 in assay [2] (setting [7]), 10.87 in assay [2] (setting [8]), 131.86 in assay [2] (setting [9]) and 248.60 in assay [2] (setting [10]). Further, the “fluorescence intensity of the cells after treatment versus before treatment” value in assay [1] (fluorescence microscopic images, 1 μM of 5-aza) was “higher”. Besides, the accumulate fluorescence intensity in assay [2] (setting [3]) was found to be 453; in assay [2] (setting [4]), 2300; in assay [2] (setting [5]) it was 126; in assay [2] (setting [6]), 962; in assay [2] (setting [7]) it was 111; in assay [2] (setting [8]), 1000. The figures for the accumulate fluorescence intensity in assay [2] (setting [9]) and in assay [2] (setting [10]) were 13200 and 24900, respectively.
